The values that follow come from patent US5474988A, “5-phenylpyrrolo-1,4-benzoxazine and 5-phenylpyrrolo-1,4-benzothiazine compounds, process and intermediates for their production and pharmaceutical compositions containing them” (Kali-Chemie Pharma GmbH, priority 1993, dated 1995).

Molecules are shown by their SMILES.

Assay [1] relates to cutaneous histamine induced anaphylactoid reactions. As to the kind of experiment: inhibition of the anaphylactoid cutaneous reaction induced by histamine. The assay is classed as in vivo, Sprague-Dawley rats. As to conditions: Rattus norvegicus, po, 0.5 h; 2 × 10^-5 mole/kg p.o., one hour before histamine; assessed 30 minutes after provocation; read-out: Inhibitory action against cutaneous histamine induced anaphylactoid reactions in rats, % inhibition. The procedure: 1. Determination of the inhibition of the anaphylactoid cutaneous reaction induced by histamine.
The inhibition of the anaphylactoid cutaneous reaction induced by histamine was determined in Sprague-Dawley rats having body weights of 150-180 g.
In order to determine the histamine-induced anaphylactoid skin reaction, 50 μl of a physiological saline solution containing 0.8 mg/ml of histamine were injected into the animals intradermally on one flank. Immediately afterward, a solution of 26.4 mg/kg of a blue dye (Evan's Blue) was administered i.v. to the animals.
The test substances were dissolved in distilled water which contains 1% by volume of dimethylformamide and 1% by volume of Tween®20 (=polyoxyethylene(20) sorbitan monolaurate). One hour before the histamine injection, each animal received 2×10^-5 mol/kg of test substance, in each case administered orally in 0.5 ml of solution. A control group received only the solvent for comparison.
The histamine-induced anaphylactoid reactions which manifested themselves by edema formation, swelling and exudation of blue dye are assessed 30 minutes after provocation by the histamine injection. This is carried out by visual determination of the extent of the exudation of blue dye at the sites of edema formation. With the aid of comparison scales, the percentage inhibition of the anaphylactoid reactions produced by the test substances is determined in comparison with the reactions of the control animals not treated with test substance.
The results obtained with compounds of the formula I by the above test method are reproduced in the following table A. The example numbers given as identifiers for the compounds of formula I refer to the subsequent preparative examples.

Assay [2] has as its system P.A.F.-induced aggregation of blood platelets. As to the kind of experiment: anti-P.A.F. action in vitro (P.A.F.-induced platelet aggregation). The assay is classed as cell-based. As to conditions: Oryctolagus cuniculus, 10^-5 mole/liter, read-out: Anti-P.A.F. activity in vitro, % inhibition of the P.A.F.-induced aggregation of blood platelets from rabbit blood. An excerpt:
3. Determination of the anti-P.A.F. action in vitro.
P.A.F. (=Platelet Activating Factor=Platelet Aggregation Factor) is a phospholipid mediator which has a multiplicity of actions. The activation of blood platelet aggregation results in the induction of long-lasting bronchoconstrictions and hyperreactivity of the respiratory passages.
In this test, the effect of the test substances on platelet aggregation induced by addition of P.A.F. in a platelet suspension obtained from rabbit blood was investigated according to the method described by Mikashima et al. (Jap. J. Pharmacol. 44 (1987) 387-391).
A suspension of platelets obtained from rabbit blood was used which contains 4×10^9 platelets/ml in a modified Tyrode buffer solution (=Tyrode solution with the addition of 1.3 mM/l of CaCl2 and 2.5 g/l of gelatine) adjusted to pH 7.4. Tyrode solution is an aqueous solution containing, per liter, 136.9 mmole of NaCl, 2.68 mmole of KCl, 2.31 mmole of CaCl2, 1.0 mmole of MgCl2, 11.9 mmole of NaHCO3, 1.45 mmole of NaH2 PO4 and 5.55 mmole of glucose. The platelets were concentrated from 10 ml blood samples of three rabbits (New Zealand hybrids, body weight 3-4 kg) in each case. To accomplish this, the blood samples were treated with ethylenediaminetetraacetic acid and washed according to the method of Artley et al. (Brit. J. Haematol. 19 (1970), 7-17). A platelet-rich plasma was first separated by centrifugation (20 minutes at 400×g). The platelets were separated from the plasma by repeated centrifugation for 15 minutes at 1400×g.After the centrifugation, the blood platelets remaining in the sediment were resuspended in a Tyrode buffer solution (but without calcium). 0.4 mmole of lysine acetylsalicylate was then added, and the blood platelets were sedimented again after 15 minutes. The sediment was resuspended in the aforementioned modified Tyrode buffer solution, and the number of platelets in the suspension obtained was adjusted to the desired content.
A 40×10^-9 molar P.A.F. solution was employed as a reagent. This solution was prepared from a 1.8×10^-3 molar stock solution in chloroform. To do this, a 10 μl sample of the stock solution was evaporated to dryness and dissolved again in 180 μl of the modified Tyrode buffer solution, to which 0.25% of lipid-free bovine serum albumin had been added. 10^-5 molar working solutions were then prepared from this and stored frozen. Samples of these solutions were appropriately diluted for tests.
In order to carry out the test, 50 μl of the blood platelet suspension and 10 μl of a 40×10^-5 molar solution of the compound to be investigated were added to […] of the modified Tyrode buffer solution with stirring (1000 rpm) in an aggregation tube provided with a small magnetic stirrer. This corresponded to a final test substance concentration of 10^-5 mole/l. After a preincubation time of 90 seconds, 10 μl of the P.A.F. preparation were added. For 4-5 minutes, the aggregation occurring in the aggregation tube was measured by means of a computerized aggregometer.
The aggregation occurring in the test tubes containing only the platelet suspension is rated as 0%. The aggregation occurring in the test tubes containing platelet suspension and P.A.F. preparation, in which a P.A.F.-induced increase in platelet aggregation takes place, is rated as 100%. The aggregation still occurring after addition of the test substances is measured, and from this the inhibition of the P.A.F.-inducedincrease in aggregation which takes place is calculated in %.

In assay [3] the test system is 5-lipoxygenase. As to the kind of experiment: inhibition of 5-lipoxygenase activity in polymorphonuclear rat leucocytes (LTB4 formation). In kind it is cell-based. As to conditions: 10^-5 mol/l; 22° C. An excerpt:
4. In vitro determination of 5-lipoxygenase inhibition. 4a. In vitro determination of inhibition of 5-lipoxygenase activity in polymorphonuclear rat leucocytes. Arachidonic acid contained in cell membranes is released after activiation of the polymorphonuclear leucocytes (=PMN). During the course of this, under the action of the enzyme 5-lipoxygenase (=5-LO) arachidonic acid metabolites are synthesized which can be converted to leucotriene B4 (=LTB4) by LTA4 hydrolase. LTB4 is a principal metabolite of the arachidonic acid metabolism taking place on activation of the enzyme 5-LO by the inflammatory stimulus in the cell membrane. In in vitro systems, this metabolite is secreted from PMNs. […] To accomplish this, the content of LTB4 in a culture medium of rat peritoneal PMNs was determined after stimulation by calcimycin (=calcium-ionophore A23187) such as described by […] et al., Can. J. Physiol. Pharmacol. 67 (1989), 17. A cell suspension containing peritoneal PMNs of male Sprague-Dawley rats (body weight 200 to 250 g) was obtained in a known manner as follows: 6 ml of a solution containing 27.9 g/l of sodium thioglycolate were injected i.p. into the animals in order to induce the PMN invasion due to this inflammatory stimulus. After 22 hours, the animals were sacrificed by means of lethal ether anaesthesia. 20 ml of a Hank's salt solution (=Hank's Balanced Salt Solution=HBSS), but without Ca^++ and Mg^++ ions and with 0.2% by weight of sodium citrate, were then injected into the abdominal cavity. The suspension of accumulated cells was removed from the abdominal cavity and the cells were separated by centrifugation (10 minutes at 400×g). The cells were purified by repeated centrifugation in the presence of Ficoll-Paque®, (=metrizoic acid preparation, […], manufacturer Pharmacia), then washed twice with HBSS containing Ca^++ and Mg^++ ions and resuspended in HBSS containing Ca^ ++ and Mg^++ ions and buffered with 10 mM HEPES (=hydroxyethylpiperazinoethanesulfonic acid). In order to carry out the tests, samples of 0.7 ml of the PMN suspension (=0.5×10^6 cells) in each case were incubated for 15 minutes at 22° C. in plastic tubes containing 10 μM of the test substance in dimethylformamide or, as a control experiment, only containing dimethylformamide. The LTB4 synthesis was initiated in the samples by addition of calcimycin (final concentration 5 μm), and the samples were incubated for 10 minutes at 22° C. Only solvent was added to blank control samples. After 10 minutes, the reaction was terminated by addition of 0.3 ml of cold methanol. The samples were kept for 1 hour at 4° C. and then centrifuged (5 minutes at 10,000×g). The supernatant liquid was investigated to determine its LTB4 content by means of reverse phase high-pressure liquid chromatography (=reverse phase HPLC). […] The LTB4 was identified by comparison with authentic standard solutions eluting at the same time and determined at a wavelength of 270 nm. The LTB4 contents are determined from comparison with calibrated standard solutions, and from this the inhibitory activity of the test substances was calculated in % inhibition of the LTB4 synthesis in comparison with the control samples containing no test substance.

The target in assay [4] is T1, 5-lipoxygenase (Homo sapiens, UniProt P09917).
T1 construct: the 5-LO activity in human whole blood; from tissue; host or cells: heparinized human whole blood
T1 sequence (P09917 1-674): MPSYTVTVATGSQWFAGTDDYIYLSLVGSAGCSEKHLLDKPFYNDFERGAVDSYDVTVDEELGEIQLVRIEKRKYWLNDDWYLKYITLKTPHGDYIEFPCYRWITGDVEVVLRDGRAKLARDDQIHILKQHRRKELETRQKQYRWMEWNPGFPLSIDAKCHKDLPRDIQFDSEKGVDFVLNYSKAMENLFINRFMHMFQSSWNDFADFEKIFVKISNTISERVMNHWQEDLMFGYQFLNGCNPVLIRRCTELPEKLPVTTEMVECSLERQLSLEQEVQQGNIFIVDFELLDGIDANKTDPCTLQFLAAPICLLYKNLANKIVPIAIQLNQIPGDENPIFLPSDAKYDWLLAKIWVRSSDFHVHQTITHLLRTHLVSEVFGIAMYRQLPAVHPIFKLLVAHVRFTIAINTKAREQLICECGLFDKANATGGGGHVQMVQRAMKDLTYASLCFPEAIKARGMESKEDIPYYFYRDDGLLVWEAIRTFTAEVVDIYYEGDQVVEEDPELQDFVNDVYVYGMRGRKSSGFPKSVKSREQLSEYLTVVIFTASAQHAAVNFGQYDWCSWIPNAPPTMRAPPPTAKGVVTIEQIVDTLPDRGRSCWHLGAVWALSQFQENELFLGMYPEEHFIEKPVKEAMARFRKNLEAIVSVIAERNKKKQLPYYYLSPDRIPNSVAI
In words: 5-lipoxygenase inhibition in human blood (LTB4 formation). In kind it is cell-based. As to conditions: 0.5 h; 10^-5 mole/liter; human whole blood, 37° C.; read-out: In vitro % inhibitory activity on LTB4 formation in human blood stimulated by calcimycin. As to the method:
4c. In vitro determination of 5-lipoxygenase inhibition in human blood.
The inhibitory activity of the test substances on the 5-LO activity in human whole blood taking place after stimulation by calcimycin is investigated according to the method described by P. Gresele et al. (Biochem. Biophys. Commun. 137 (1986), 334).
For carrying out the test, human blood is collected in sterile 50 ml test tubes which contain 10 units of heparin/ml of blood and incubated for 5-10 minutes at 37° C. Amounts of test substance, dissolved in 10 μl of dimethylformamide, are added to 2 ml samples of this blood such that a final concentration of test substance of 10 μmol/l is achieved in the samples. Only 10 μl of the solvent were added to control samples. The samples were then incubated for 10 minutes at 37° C. In order to stimulate LTB4 synthesis, an amount of calcimycin, dissolved in 200 μl of plasma, was added to the samples such that a calcimycin concentration of 60 μmol/l was achieved, and the samples were incubated for a further 30 minutes at 37° C. The reaction was then terminated by addition of 200 μl of an ethylene glycol tetraacetate solution (corresponding to an ethylene glycol acetate concentration in the sample of 100 mmol/l). The samples are kept in an ice-bath for 10 minutes and then centrifuged (5 minutes at 1000×g). The supernantant liquids, which contain the LTB4 formed during the reaction time, are each separated and, for precipitation of the proteins contained therein, mixed with 3 ml of acetone and kept for 45 minutes at 4° C. Then the samples are centrifuged again (5 minutes at 1500×g), the supernatant liquids are separated, and the content of LTB4 therein is determined in a known manner by means of an enzyme immunoassay (=EIA). From the measured LTB4 values, the inhibitory activity of the test substances in human whole blood was calculated in % inhibition of LTB4 synthesis in comparison to the control samples containing no test substance.

Regarding `Cc1c(-c2ccc(O)cc2)n2c3c(cccc13)OC(CCN1CCN(c3ccccn3)CC1)C2` (stereo not drawn) [Example 30], the inhibition in vivo at 20 µmol/kg in assay [1] came out at 47%. Also, the inhibition at 10 µM in assay [2] was found to be 69%. For the same molecule, in assay [3], the “In vitro inhibitory activity on LTB4 formation in rat PMNs stimulated by calcium ionophore A23187” value is 100%.

As for `Cc1ccc(N2CCN(CCC3Cn4c(-c5ccc(O)cc5)c(C)c5cccc(c54)O3)CC2)nc1` (stereo not drawn) [Example 31], in assay [1], the inhibition in vivo at 20 µmol/kg was determined as 58%. Also, the inhibition at 10 µM in assay [2] worked out at 52%. Further, the “In vitro inhibitory activity on LTB4 formation in rat PMNs stimulated by calcium ionophore A23187” value in assay [3] worked out at 81%.

As for `Cc1cccnc1N1CCN(CCC2Cn3c(-c4ccc(O)cc4)c(C)c4cccc(c43)O2)CC1` (stereo not drawn) [Example 32], in assay [1], the inhibition in vivo at 20 µmol/kg is 57%. Further, the inhibition at 10 µM in assay [2] worked out at 79%. The “In vitro inhibitory activity on LTB4 formation in rat PMNs stimulated by calcium ionophore A23187” value in assay [3] was found to be 98%.

As for `Cc1cccc(N2CCN(CCC3Cn4c(-c5ccc(O)cc5)c(C)c5cccc(c54)O3)CC2)n1` (stereo not drawn) [Example 33], in assay [1], the inhibition in vivo at 20 µmol/kg is 39%. The inhibition at 10 µM in assay [2] turned out to be 43%. Further, in assay [3], the “In vitro inhibitory activity on LTB4 formation in rat PMNs stimulated by calcium ionophore A23187” value is 90%.

In the case of `Cc1cccnc1N1CCN(CCCC2Cn3c(-c4ccc(O)cc4)c(C)c4cccc(c43)O2)CC1` (stereo not drawn) [Example 41], the inhibition in vivo at 20 µmol/kg in assay [1] turned out to be 60%. Also, in assay [4], the inhibition at 10 µM was 100%. For the same molecule, the “In vitro inhibitory activity on LTB4 formation in rat PMNs stimulated by calcium ionophore A23187” value in assay [3] is 84%.
